Our source for the MIC90, MIC and CC50 values is ChEMBL document CHEMBL3832761, “MMV Pathogen Box Bioactivity Data” (2017).

Usually MIC90 stands for the lowest concentration that inhibits either 90% of growth or 90% of the strains tested, depending on the study. A low value points to greater potency. A word on the MIC: it is the lowest concentration that inhibits growth of the organism. One may read the CC50 as the concentration that lowers cell viability or growth by half. Lower therefore signals greater toxicity to the cells.

SMILES strings stand for the structures. Converted amounts (≈) assume the structure as drawn.

Common to all, as to format: functional
Experiment [1] relates to Mycobacterium tuberculosis. Kind of experiment: (§1) AntiMycobacterium tuberculosis activity day 10 in 7H9/2.5mM butyrate/pH6/0.1mM nitrite MIC90 (uM). The settings on record: 240 h.
The subject of experiment [2] is Mycobacterium tuberculosis. Kind of experiment: AntiMycobacterium tuberculosis activity 2-week Alamar Blue 7H9/ADC/Tw MIC (uM). The conditions noted are these: 336 h. On the technique in general: The colour change of resazurin is a common sign of viable cells or microbes.
For experiment [3], the system named is Mycobacterium tuberculosis. Kind of experiment: AntiMycobacterium tuberculosis activity 2-week Alamar Blue 7H9/cholesterol/BSA/Tx MIC (uM). The settings on record: 336 h.
The subject of experiment [4] is Mycobacterium tuberculosis. The experiment can be described thus: AntiMycobacterium tuberculosis activity 1-week 7H9/glucose/BSA/Tx MIC (uM). The settings on record: 168 h.
Experiment [5] deals with Mycobacterium tuberculosis. Kind of experiment: AntiMycobacterium tuberculosis activity 2-week 7H9/ADC/Tw MIC (uM). The conditions noted are these: 336 h.
The subject of experiment [6] is Mycobacterium tuberculosis. The experiment can be described thus: AntiMycobacterium tuberculosis activity Non-Replicating form: Average MIC90 (uM).
The subject of experiment [7] is Mycobacterium tuberculosis. The experiment can be described thus: AntiMycobacterium tuberculosis activity 2-week 7H9/DPPC/cholesterol/BSA/Tx MIC (uM). The conditions noted are these: 336 h.
Experiment [8] has as its system Mycobacterium tuberculosis. Kind of experiment: AntiMycobacterium tuberculosis activity 2-week GAST/Fe MIC (uM). The conditions noted are these: 336 h.
The subject of experiment [9] is Mycobacterium tuberculosis. Kind of experiment: AntiMycobacterium tuberculosis activity day 21 in 7H9/2.5mM butyrate/pH6/0.1mM nitrite MIC90 (uM). The conditions noted are these: 504 h.
For experiment [10], the system named is Mycobacterium tuberculosis. The experiment can be described thus: AntiMycobacterium tuberculosis activity Replicating form: Average MIC90 (uM).
For the next experiment, the system named is HepG2. The experiment can be described thus: HepG2 CC50 (uM) Cytotoxicity. The settings on record: Homo sapiens.
Experiment [11] concerns Mycobacterium tuberculosis. The experiment can be described thus: AntiMycobacterium tuberculosis activity 1-week 7H9/DPPC/cholesterol/BSA/Tx MIC (uM). The conditions noted are these: 168 h.
Experiment [12] deals with Mycobacterium tuberculosis. Kind of experiment: AntiMycobacterium tuberculosis activity 1-week 7H9/cholesterol/BSA/Tx MIC (uM). The conditions noted are these: 168 h.
The test system of experiment [13] is Mycobacterium tuberculosis. The description is as §1. The conditions noted are these: 240 h. The source holds these as a separate data set.
Experiment [14] relates to Mycobacterium tuberculosis. Kind of experiment: AntiMycobacterium tuberculosis activity day 21 MIC99 in 7H9/2.5mM butyrate/pH6/0.1mM nitrite MIC99 (uM). The conditions noted are these: 504 h.
Experiment [15] concerns Mycobacterium tuberculosis. The experiment can be described thus: AntiMycobacterium tuberculosis activity 2-week 7H9/glucose/BSA/Tx MIC (uM). The conditions noted are these: 336 h.
Experiment [16] deals with Mycobacterium tuberculosis. Kind of experiment: AntiMycobacterium tuberculosis activity 1-week 7H9/ADC/Tw MIC (uM). The settings on record: 168 h.
Experiment [17] relates to Mycobacterium tuberculosis. Kind of experiment: AntiMycobacterium tuberculosis activity 1-week GAST/Fe MIC (uM). The settings on record: 168 h.

Turning to `CC1=NN(c2nc3ccccc3s2)C(=O)C1Cc1cccc2ccccc12` (stereo not drawn), the MIC90 in experiment [1] is 6.25 µM (≈ 2.32 µg/mL); in [6], more than 100 µM; in experiment [9], 12.5 µM (≈ 4.64 µg/mL); in experiment [10], 96.7 µM (≈ 35.9 µg/mL); in experiment [13] it was 12.5 µM (≈ 4.64 µg/mL). In addition, the MIC in experiment [2] came out at 25 µM (≈ 9.29 µg/mL); in experiment [3], 19 µM (≈ 7.06 µg/mL); in experiment [4] it was 12.5 µM (≈ 4.64 µg/mL); in [5], 25 µM (≈ 9.29 µg/mL); in experiment [7], 12.5 µM (≈ 4.64 µg/mL); in [8], 3.13 µM (≈ 1.16 µg/mL). For the same compound, the MIC in experiment [11] amounted to 12.5 µM (≈ 4.64 µg/mL); in experiment [12], 12.5 µM (≈ 4.64 µg/mL); in experiment [14], 12.5 µM (≈ 4.64 µg/mL); in experiment [15], 12.5 µM (≈ 4.64 µg/mL); in experiment [16], 19 µM (≈ 7.06 µg/mL); in experiment [17], 1.56 µM (≈ 0.579 µg/mL). Moreover, half-maximal cytotoxicity in the experiment with HepG2 (CC50) was put at 21.9 µM.
Consider `Cc1cccc(-c2nc(Nc3ccncn3)c3sccc3n2)n1`, for which the MIC90 was determined as 3.12 µM (≈ 1 µg/mL) in experiment [1]; 0.09 µM (≈ 0.0288 µg/mL) in experiment [6]; 6.25 µM (≈ 2 µg/mL) in [9]; 2.5 µM (≈ 0.801 µg/mL) in experiment [10]; 6.25 µM (≈ 2 µg/mL) in experiment [13]. For the same compound, the minimal inhibitory concentration (MIC) in experiment [2] is 9.4 µM (≈ 3.01 µg/mL); in experiment [3], 6.25 µM (≈ 2 µg/mL); in [4], not below 50 µM; in experiment [5], 9.4 µM (≈ 3.01 µg/mL); in [7], more than 50 µM; in [8], 12.5 µM (≈ 4 µg/mL). In addition, the MIC in experiment [11] was 37 µM (≈ 11.9 µg/mL); in [12], 37 µM (≈ 11.9 µg/mL); in [14], 6.25 µM (≈ 2 µg/mL); in [15], more than 50 µM; in experiment [16], 4.7 µM (≈ 1.51 µg/mL); in [17] it was 6.25 µM (≈ 2 µg/mL). In the experiment with HepG2, this compound registered a CC50 of 14.3 µM.
Regarding `O=C(NCCc1c[nH]c2ccccc12)c1cc2ccccc2oc1=O`, the MIC90 in experiment [1] is 12.5 µM (≈ 4.15 µg/mL); in experiment [6], 4.78 µM (≈ 1.59 µg/mL); in experiment [9] it was 50 µM (≈ 16.6 µg/mL); in experiment [10] it was 7.71 µM (≈ 2.56 µg/mL); in experiment [13] it was more than 50 µM. Also, the MIC amounted to 0.78 µM (≈ 0.259 µg/mL) in experiment [2]; 4.7 µM (≈ 1.56 µg/mL) in experiment [3]; 0.78 µM (≈ 0.259 µg/mL) in experiment [4]; 0.78 µM (≈ 0.259 µg/mL) in experiment [5]; 3.13 µM (≈ 1.04 µg/mL) in experiment [7]; 0.6 µM (≈ 0.199 µg/mL) in [8]. The MIC in experiment [11] was 1.56 µM (≈ 0.518 µg/mL); in experiment [12], 1.2 µM (≈ 0.399 µg/mL); in experiment [14], more than 50 µM; in [15] it was 1.56 µM (≈ 0.518 µg/mL); in experiment [16] it was 0.78 µM (≈ 0.259 µg/mL); in experiment [17] it was 0.3 µM (≈ 0.0997 µg/mL). Further, the CC50 in the experiment with HepG2 was more than 100 µM.
Regarding `COC(=O)c1c(NC(=O)c2c(F)c(F)c(F)c(F)c2F)sc2c1CCCCC2`, the MIC90 in experiment [1] was 1.5 µM (≈ 0.629 µg/mL); in [6], 3.8 µM (≈ 1.59 µg/mL); in experiment [9] it was 3.1 µM (≈ 1.3 µg/mL); in experiment [10], 0.86 µM (≈ 0.361 µg/mL); in experiment [13], 3.1 µM (≈ 1.3 µg/mL). Moreover, the MIC in experiment [2] turned out to be 1.56 µM (≈ 0.654 µg/mL); in experiment [3], 1.56 µM (≈ 0.654 µg/mL); in [4], 0.78 µM (≈ 0.327 µg/mL); in experiment [5], 2.3 µM (≈ 0.965 µg/mL); in [7] it was 1.56 µM (≈ 0.654 µg/mL); in experiment [8], 0.78 µM (≈ 0.327 µg/mL). Besides, the MIC in [11] is 0.6 µM (≈ 0.252 µg/mL); in experiment [12] it was 0.6 µM (≈ 0.252 µg/mL); in [14] it was 3.1 µM (≈ 1.3 µg/mL); in experiment [15] it was 1.2 µM (≈ 0.503 µg/mL); in [16], 1.2 µM (≈ 0.503 µg/mL); in [17] it was 0.78 µM (≈ 0.327 µg/mL). For the same compound, the CC50 in the experiment on HepG2 worked out at 7.5 µM.
For `Nc1ncnc2c1ncn2[C@@H]1O[C@H](COS(=O)(=O)NC(=O)c2ccccc2O)[C@@H](O)[C@H]1O`, the MIC90 is more than 50 µM in experiment [1]; more than 100 µM in experiment [6]; more than 50 µM in experiment [9]; more than 100 µM in [10]; more than 50 µM in experiment [13]. Moreover, the MIC was 9.4 µM (≈ 4.38 µg/mL) in experiment [2]; more than 50 µM in experiment [3]; more than 50 µM in [4]; more than 50 µM in experiment [5]; more than 50 µM in [7]; 0.6 µM (≈ 0.28 µg/mL) in experiment [8]. For the same compound, the MIC was more than 50 µM in experiment [11]; more than 50 µM in experiment [12]; more than 50 µM in [14]; more than 50 µM in experiment [15]; more than 50 µM in experiment [16]; 0.3 µM (≈ 0.14 µg/mL) in experiment [17]. In the experiment with HepG2, this compound showed a CC50 of more than 100 µM.
`Cn1c(=O)c2c(S(C)(=O)=O)snc2n(C)c1=O`: the MIC90 in experiment [1] is 6.25 µM (≈ 1.72 µg/mL); in experiment [6], less than 0.23 µM; in experiment [9] it was 12.5 µM (≈ 3.44 µg/mL); in experiment [10], 15.4 µM (≈ 4.24 µg/mL); in experiment [13] it was 12.5 µM (≈ 3.44 µg/mL). The MIC in experiment [2] was 25 µM (≈ 6.88 µg/mL); in experiment [3] it was 25 µM (≈ 6.88 µg/mL); in experiment [4] it was 12.5 µM (≈ 3.44 µg/mL); in [5], 25 µM (≈ 6.88 µg/mL); in experiment [7], 37 µM (≈ 10.2 µg/mL); in experiment [8] it was 6.25 µM (≈ 1.72 µg/mL). In addition, the MIC is 19 µM (≈ 5.23 µg/mL) in experiment [11]; 25 µM (≈ 6.88 µg/mL) in experiment [12]; 12.5 µM (≈ 3.44 µg/mL) in experiment [14]; 19 µM (≈ 5.23 µg/mL) in experiment [15]; 19 µM (≈ 5.23 µg/mL) in [16]; 4.7 µM (≈ 1.29 µg/mL) in experiment [17]. Besides, in the experiment on HepG2, the midpoint of cytotoxicity, the CC50, lay at 1.1 µM.
